Source: patent US20100160335A1, “PYRIDAZINONE DERIVATIVE AND PDE INHIBITOR CONTAINING THE SAME AS ACTIVE INGREDIENT” (KYORIN PHARMACEUTICAL CO., LTD., priority 2007, published 2010)
pIC50: −log10 of the molar value. Where two headings read alike, the source gives them in different places.

Tests used:
[1] = target: T1, PDE3A catalytic domain (PDE3Acat) (Homo sapiens, UniProt Q14432); assay: Phosphodiesterase inhibitory activity, PDE3 ([3H]cAMP, recombinant enzyme); assay type: biochemical; conditions: 30° C., 20 minutes, read-out: IC50(μmol/L) PDE3
T1 construct: made in house; host or cells: Sf9 insect cells (baculovirus, Bac-to-Bac / Gateway)

[2] = target: T2, PDE4Bcat (Homo sapiens, UniProt Q07343); assay: Phosphodiesterase inhibitory activity, PDE4 ([3H]cAMP, recombinant enzyme); assay type: biochemical; conditions: 30° C., 20 minutes, read-out: IC50(μmol/L) PDE4
T2 construct: made in house; host or cells: Sf9 insect cells (baculovirus, Bac-to-Bac / Gateway)

[3] = test system: LPS acute inflammation model in rats; assay: LPS acute inflammation model in rats (total leukocytes in BALF); assay type: in vivo; conditions: BALF 3 hours after LPS; for inhibition in vivo at 1 mg/kg: Rattus norvegicus, Leukocyte, po, 3 h, read-out: Inhibition rate (total number of leukocytes in BALF); for Inhibition rate (total number of leukocytes in BALF): rat
Description: 1 mg/kg of the compound was orally administered to rat one hour before inhalation of a lipopolysaccharide from E. coli serotype 055:B5 (LPS), and the rat was made to inhale 50 mL of the LPS solution nebulized using a nebulizer for 30 minutes. Then, 3 hours after the LPS inhalation, the rat was euthanized with 20% urethane (5 ml/rat, i.p.). 5 ml of physiological saline for bronchoalveolar lavage was injected into the bronchial tubes and alveoli through the airway, and the bronchial tubes and alveoli were washed three times using a 5 mL syringe. This operation was repeated twice, and the solution was collected as bronchoalveolar lavage fluid (BALF). The collected BALF was centrifuged at 1200 rpm and 4° C. for 10 minutes (Hirtachi; himac CR 5 DL). The pellet was re-suspended in 10 mL of a 0.1% bovine serum albumin-physiological saline, and an equivalent amount of Turk's solution was added thereto to stain leukocytes. The total number of leukocytes was counted under a microscope to calculate the inhibition rate. Further, the indications were as follows: inhibition rate≧90% (++) and 90%>inhibition rate≧50% (+). [ ] means the results of the drug administration after fasting overnight.

[4] = test system: histamine-induced bronchoconstriction in guinea pigs; assay: Histamine-induced bronchoconstriction reaction in guinea pigs; assay type: in vivo; conditions: Cavia porcellus, iv, 0.5 min, guinea pig, measured 30 seconds after administration, read-out: Inhibition rate (histamine-induced bronchoconstriction); for inhibition in vivo at 0.3 mg/kg: compound 0.3 mg/kg, i.v.; for inhibition in vivo at 0.1 mg/kg: compound 0.1 mg/kg, i.v. (values in [ ])
Description: Guinea pigs were anesthetized with pentobarbital (30 mg/kg, i.p.). A cannula for intravenous administration was inserted into the left external jugular vein, a cannula for collecting blood and measuring blood pressure was inserted into the right internal carotid artery, and a tracheal cannula was inserted into the trachea. The guinea pigs were maintained on artificial respiration under the conditions of 60 times/min and 10 mL/kg/stroke. The airflow from the side branch of the tracheal cannula was measured by a bronchospasm transducer (Ugo-Basile) and recorded on a computer via Power Lab (ADInstruments Japan). The guinea pigs were immobilized with gallamine (10 mg/kg, i.v.), and histamine (12.5 μg/kg, i.v.) was administered at 10-minute intervals. After the histamine-induced bronchoconstriction became stable, the compound (0.3 mg/kg, i.v.) was administered. The histamine-induced bronchoconstriction reaction was measured 30 seconds after the compound administration to examine the bronchoconstriction inhibitory activity of the compound. The bronchoconstriction was recorded as the airflow value, and the results were represented by the ratio of the maximum value of the histamine- induced airflow 30 seconds after the administration to the maximum value of the airflow before the administration. Also, the test compounds dissolved in DMSO were used. Further, the indications were as follows: inhibition rate≧90% (+++), 90%>inhibition rate≧80% (++), and 80%>inhibition rate≧70% (+). [ ] means the results in the case of 0.1 mg/kg, i.v.

[5] = 1 mg/kg orally one hour before LPS inhalation
[6] = 1 mg/kg orally after fasting overnight (values in [ ]), one hour before LPS inhalation, 1 mg/kg
[7] = 1 mg/kg orally after fasting overnight (values in [ ]), one hour before LPS inhalation

T1 sequence (Q14432 674-1093 limits assumed): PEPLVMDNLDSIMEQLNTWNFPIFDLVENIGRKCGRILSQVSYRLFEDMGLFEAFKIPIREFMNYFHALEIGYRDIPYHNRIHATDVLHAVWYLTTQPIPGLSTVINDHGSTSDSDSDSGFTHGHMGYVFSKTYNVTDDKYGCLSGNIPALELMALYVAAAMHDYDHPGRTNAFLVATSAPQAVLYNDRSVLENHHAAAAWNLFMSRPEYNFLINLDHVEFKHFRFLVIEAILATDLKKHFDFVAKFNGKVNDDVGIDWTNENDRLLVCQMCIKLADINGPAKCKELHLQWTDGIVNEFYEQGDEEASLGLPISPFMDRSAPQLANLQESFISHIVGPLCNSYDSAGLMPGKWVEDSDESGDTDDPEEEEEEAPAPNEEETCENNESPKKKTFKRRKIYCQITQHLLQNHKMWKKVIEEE
T2 sequence (Q07343 330-659 limits assumed): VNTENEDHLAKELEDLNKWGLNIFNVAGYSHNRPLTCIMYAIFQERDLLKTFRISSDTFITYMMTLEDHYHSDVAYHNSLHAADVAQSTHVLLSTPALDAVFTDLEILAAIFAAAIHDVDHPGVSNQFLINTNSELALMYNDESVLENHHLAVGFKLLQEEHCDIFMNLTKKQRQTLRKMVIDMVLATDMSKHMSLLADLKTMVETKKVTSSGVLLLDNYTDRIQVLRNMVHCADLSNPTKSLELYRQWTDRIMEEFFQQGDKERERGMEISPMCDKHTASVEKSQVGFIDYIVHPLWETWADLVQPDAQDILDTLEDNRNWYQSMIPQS

| pIC50 [1] | pIC50 [2] | SMILES | inhibition in vivo at 1 mg/kg [3, 5] [%] | inhibition in vivo at 0.3 mg/kg [4] [%] | Inhibition rate (total number of leukocytes in BALF) [3, 5] | Inhibition rate (total number of leukocytes in BALF) [3, 6] | inhibition in vivo at 1 mg/kg [3, 7] [%] | inhibition in vivo at 0.1 mg/kg [4] [%] |
| --- | --- | --- | --- | --- | --- | --- | --- | --- |
| 5.00 to 6.00 | > 7.00 | CCc1ccc2c(C3=NN(CCCCOc4ccc(C5=NNC(=O)CC5C)cc4)C(=O)CC3C)ccc(OC)c2n1 (single isomer, unassigned) [Example 339, 6-(2-Ethyl-8-methoxyquinolin-5-yl)-5-methyl-2-[4-[4-(4-methyl-6-oxo-1,4,5,6-tetrahydropyridazin-3-yl)phenoxy]butyl]-4,5-dihydro-2H-pyridazin-3-one] | 50 to 90 |  |  |  |  |  |
| > 7.00 | > 7.00 | CCc1ccc2c(C3=NN(CCCCOc4ccc(C5=NNC(=O)CC5C)cc4)C(=O)CC3C)ccc(OC)c2n1 (single isomer, unassigned) [Example 340, 6-(2-Ethyl-8-methoxyquinolin-5-yl)-5-methyl-2-[4-[4-(4-methyl-6-oxo-1,4,5,6-tetrahydropyridazin-3-yl)phenoxy]butyl]-4,5-dihydro-2H-pyridazin-3-one] |  | ≥ 90 | + (90%>inhibition rate≧50% (+)) |  |  |  |
| > 7.00 | > 7.00 | CCc1ccc2c(-c3ccc(=O)n(CCCCOc4ccc(C5=NNC(=O)CC5C)c(F)c4F)n3)ccc(OC)c2n1 (single isomer, unassigned; (+)) [Example 322, (+)-6-(2-ethyl-8-methoxyquinolin-5-yl)-2-[4-[2,3-difluoro-4-(4-methyl-6-oxo-1,4,5,6-tetrahydropyridazin-3-yl)phenoxy]butyl]-2H-pyridazin-3-one] |  |  |  | [+] (90%>inhibition rate≧50% (+)) |  |  |
| > 7.00 | > 7.00 | CCc1ccc2c(-c3ccc(=O)n(CCCCOc4ccc(C5=NNC(=O)CC5C)c(F)c4F)n3)ccc(OC)c2n1 (single isomer, unassigned; (-)) [Example 323, (−)-6-(2-ethyl-8-methoxyquinolin-5-yl)-2-[4-[2,3-difluoro-4-(4-methyl-6-oxo-1,4,5,6-tetrahydropyridazin-3-yl)phenoxy]butyl]-2H-pyridazin-3-one] |  | 70 to 80 |  | [++] (inhibition rate≧90% (++)) |  |  |
| > 7.00 | > 7.00 | COc1ccc(-c2ccc(=O)n(CCCCOc3ccc(C4=NNC(=O)CC4)c(F)c3F)n2)c2ccc(C)nc12 [Example 271, 2-[4-[2,3-Difluoro-4-(6-oxo-1,4,5,6-tetrahydropyridazin-3-yl)phenoxy]butyl]-6-(8-methoxy-2-methylquinolin-5-yl)-2H-pyridazin-3-one] |  | ≥ 90 |  |  | 50 to 90 |  |
| > 7.00 | 6.00 to 7.00 | CCc1ccc2c(-c3ccc(=O)n(CCCCOc4ccc(C5=NNC(=O)CC5)c(F)c4F)n3)ccc(OC)c2n1 [Example 283, 6-(2-Ethyl-8-methoxyquinolin-5-yl)-2-[4-[2,3-difluoro-4-(6-oxo-1,4,5,6-tetrahydropyridazin-3-yl)phenoxy]butyl]-2H-pyridazin-3-one] |  |  |  |  | ≥ 90 |  |
| > 7.00 | > 7.00 | CCc1ccc2c(-c3ccc(=O)n(CCCCOc4ccc(C5=NNC(=O)CC5C)c(F)c4F)n3)ccc(OC)c2n1 (stereo not shown) [Example 289, 6-(2-Ethyl-8-methoxyquinolin-5-yl)-2-[4-[2,3-difluoro-4-(4-methyl-6-oxo-1,4,5,6-tetrahydropyridazin-3-yl)phenoxy]butyl]-2H-pyridazin-3-one] | 50 to 90 | ≥ 90 |  |  |  |  |
| > 7.00 | > 7.00 | CCc1ccc2c(C3=NN(CCCCOc4ccc(C5=NNC(=O)CC5)c(F)c4F)C(=O)CC3C)ccc(OC)c2n1 (stereo not shown) [Example 299, 6-(2-Ethyl-8-methoxyquinolin-5-yl)-5-methyl-2-[4-[2,3-difluoro-4-(6-oxo-1,4,5,6-tetrahydropyridazin-3-yl)phenoxy]butyl]-4,5-dihydro-2H-pyridazin-3-one] |  |  |  |  | 50 to 90 | ≥ 90 |
| 6.00 to 7.00 | > 7.00 | CCc1ccc2c(C3=NN(CCCCOc4ccc(C5=NNC(=O)C5(C)C)c(F)c4F)C(=O)CC3C)ccc(OC)c2n1 (stereo not shown) [Example 303, 6-(2-Ethyl-8-methoxyquinolin-5-yl)-5-methyl-2-[4-[2,3-difluoro-4-(4,4-dimethyl-5-oxo-4,5-dihydro-1H-pyrazol-3-yl)phenoxy]butyl]-4,5-dihydro-2H-pyridazin-3-one] |  | 80 to 90 |  |  |  |  |
| > 7.00 | 5.00 to 6.00 | COc1ccc(-c2ccc(=O)n(CCCCOc3ccc(C4=NNC(=O)CC4C)c(F)c3F)n2)c2nc(C(F)(F)F)nn12 (stereo not shown) [Example 304, 2-[4-[2,3-Difluoro-4-(4-methyl-6-oxo-1,4,5,6-tetrahydropyridazin-3-yl)phenoxy]butyl]-6-(5-methoxy-2-trifluoromethyl-[1,2,4]triazolo [1,5-a]pyridin-8-yl)-2H-pyridazin-3-one] |  | ≥ 90 |  |  |  |  |
| 6.00 to 7.00 | 5.00 to 6.00 | COc1ccc(-c2ccc(=O)n(CCCCOc3ccc(C4=NNC(=O)CC4)c(F)c3F)n2)c2nc(C(F)(F)F)nn12 [Example 305, 2-[4-[2,3-Difluoro-4-(6-oxo-1,4,5,6-tetrahydropyridazin-3-yl)phenoxy]butyl]-6-(5-methoxy-2-trifluoromethyl-[1,2,4]triazolo[1,5-a]pyridin-8-yl)-2H-pyridazin-3-one] |  | ≥ 90 |  |  |  |  |
| 6.00 to 7.00 | > 7.00 | CCc1ccc2c(C3=NN(CCCCOc4ccc(C5=NNC(=O)CC5C)cc4)C(=O)CC3C)ccc(OC)c2n1 (stereo not shown) [Example 312, 6-(2-Ethyl-8-methoxyquinolin-5-yl)-5-methyl-2-[4-[4-(4-methyl-6-oxo-1,4,5,6-tetrahydropyridazin-3-yl)phenoxy]butyl]-4,5-dihydro-2H-pyridazin-3-one] | 50 to 90 |  |  |  |  | 70 to 80 |
| > 7.00 | > 7.00 | COc1ccc(C2=NN(CCCCOc3ccc(C4=NNC(=O)CC4C)cc3)C(=O)CC2C)c2[nH]c(C(F)(F)F)nc12 (stereo not shown) [Example 314, 6-(4-Methoxy-2-trifluoromethyl-1H-benzimidazol-7-yl)-5-methyl-2-[4-[4-(4-methyl-6-oxo-1,4,5,6-tetrahydropyridazin-3-yl)phenoxy]butyl]-4,5-dihydro-2H-pyridazin-3-one] | 50 to 90 | 80 to 90 |  |  |  |  |
| 5.00 to 6.00 | > 7.00 | CCc1ccc2c(C3=NN(CCOc4ccc(C5=NNC(=O)CC5C)cc4)C(=O)CC3C)ccc(OC)c2n1 (stereo not shown) [Example 315, 6-(2-Ethyl-8-methoxyquinolin-5-yl)-5-methyl-2-[2-[4-(4-methyl-6-oxo-1,4,5,6-tetrahydropyridazin-3-yl)phenoxy]ethyl]-4,5-dihydro-2H-pyridazin-3-one] |  | 70 to 80 |  |  |  |  |
| > 7.00 | 6.00 to 7.00 | COc1ccc(C2=NN(CCCCOc3ccc(C4=NNC(=O)CC4C)cc3)C(=O)CC2C)c2cccnc12 (stereo not shown) [Example 316, 6-(8-Methoxyquinolin-5-yl)-5-methyl-2-[4-[4-(4-methyl-6-oxo-1,4,5,6-tetrahydropyridazin-3-yl)phenoxy]butyl]-4,5-dihydro-2H-pyridazin-3-one] |  |  |  |  |  | ≥ 90 |
| > 7.00 | 6.00 to 7.00 | COc1ccc(-c2ccc(=O)n(CCCCOc3ccc(C4=NNC(=O)CC4C)cc3)n2)c2cccnc12 (stereo not shown) [Example 318, 6-(8-Methoxyquinolin-5-yl)-2-[4-[4-(4-methyl-6-oxo-1,4,5,6-tetrahydropyridazin-3-yl)phenoxy]butyl]-2H-pyridazin-3-one] |  | ≥ 90 |  |  |  |  |
